Test results as given in the supplement of paper PMC10883282.
± gives the standard deviation of the averaged measurements.

Columns and labels:
Experiment in all cases: relative viability vs DMSO control (72 h) (fraction); higher = more viable cells
KHOS-240S = test system: KHOS-240S
How it was run: (§1)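 After seeding at densities set for 80–90% confluence in 384-well plates, sarcoma cell lines waited 24 h before 2.5 µl of serially diluted compound was added. Source plates held 10 mM down to 0.0002 mM. Plates were incubated 72 h at 37 °C with 5% CO2, with 0.1% DMSO vehicle and a 5 µM positive control, and relative viability was taken from ATPLite as percent growth averaged over up to triplicate wells, with 1 set as full and 0 as none.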

RD-ES = test system: RD-ES
How it was run: as §1

RD = test system: RD
How it was run: as §1

SK-ES-1 = test system: SK-ES-1
How it was run: as §1

SW982 = test system: SW982
How it was run: as §1

SMILES: CN(C)C/C=C/C(=O)Nc1cc2c(Nc3ccc(F)c(Cl)c3)ncnc2cc1O[C@H]1CCOC1 [Afatinib]
- relative viability (KHOS-240S; 0.00017 µM): 1.06 ± 0.052
- relative viability (KHOS-240S; 0.00051 µM): 1.06 ± 0.056
- relative viability (KHOS-240S; 0.00152 µM): 1.07 ± 0.068
- relative viability (KHOS-240S; 0.00457 µM): 1.08 ± 0.063
- relative viability (KHOS-240S; 0.01372 µM): 1.06 ± 0.036
- relative viability (KHOS-240S; 0.04115 µM): 1.04 ± 0.063
- relative viability (KHOS-240S; 0.1235 µM): 1.03 ± 0.064
- relative viability (KHOS-240S; 0.3704 µM): 0.991 ± 0.051
- relative viability (KHOS-240S; 1.111 µM): 0.715 ± 0.072
- relative viability (KHOS-240S; 3.333 µM): 0.402 ± 0.039
- relative viability (KHOS-240S; 10 µM): 0.0697 ± 0.068
- relative viability (RD-ES; 0.00017 µM): 0.992 ± 0.042
- relative viability (RD-ES; 0.00051 µM): 0.986 ± 0.04
- relative viability (RD-ES; 0.00152 µM): 1 ± 0.048
- relative viability (RD-ES; 0.00457 µM): 0.973 ± 0.044
- relative viability (RD-ES; 0.01372 µM): 1 ± 0.027
- relative viability (RD-ES; 0.04115 µM): 0.969 ± 0.024
- relative viability (RD-ES; 0.1235 µM): 0.914 ± 0.039
- relative viability (RD-ES; 0.3704 µM): 0.829 ± 0.028
- relative viability (RD-ES; 1.111 µM): 0.647 ± 0.012
- relative viability (RD-ES; 3.333 µM): 0.381 ± 0.077
- relative viability (RD-ES; 10 µM): 0.0144 ± 0.001
- relative viability (RD; 0.00017 µM): 1.08 ± 0.036
- relative viability (RD; 0.00051 µM): 1.13 ± 0.097
- relative viability (RD; 0.00152 µM): 1.15 ± 0.059
- relative viability (RD; 0.00457 µM): 1.11 ± 0.074
- relative viability (RD; 0.01372 µM): 1.11 ± 0.061
- relative viability (RD; 0.04115 µM): 1.07 ± 0.1
- relative viability (RD; 0.1235 µM): 1.09 ± 0.12
- relative viability (RD; 0.3704 µM): 1.03 ± 0.086
- relative viability (RD; 1.111 µM): 0.569 ± 0.061
- relative viability (RD; 3.333 µM): 0.0531 ± 0.046
- relative viability (RD; 10 µM): 0.022 ± 0.0053
- relative viability (SK-ES-1; 0.00017 µM): 1.01 ± 0.04
- relative viability (SK-ES-1; 0.00051 µM): 1.05 ± 0.042
- relative viability (SK-ES-1; 0.00152 µM): 1.04 ± 0.024
- relative viability (SK-ES-1; 0.00457 µM): 0.988 ± 0.027
- relative viability (SK-ES-1; 0.01372 µM): 1.03 ± 0.007
- relative viability (SK-ES-1; 0.04115 µM): 0.959 ± 0.053
- relative viability (SK-ES-1; 0.1235 µM): 0.858 ± 0.034
- relative viability (SK-ES-1; 0.3704 µM): 0.676 ± 0.022
- relative viability (SK-ES-1; 1.111 µM): 0.306 ± 0.013
- relative viability (SK-ES-1; 3.333 µM): 0.117 ± 0.019
- relative viability (SK-ES-1; 10 µM): 0.113 ± 0.023
- relative viability (SW982; 0.00017 µM): 1.017 ± 0.0088
- relative viability (SW982; 0.00051 µM): 1.03 ± 0.02
- relative viability (SW982; 0.00152 µM): 1.03 ± 0.022
- relative viability (SW982; 0.00457 µM): 1.06 ± 0.023
- relative viability (SW982; 0.01372 µM): 1.05 ± 0.034
- relative viability (SW982; 0.04115 µM): 1.02 ± 0.041
- relative viability (SW982; 0.1235 µM): 0.914 ± 0.051
- relative viability (SW982; 0.3704 µM): 0.659 ± 0.0084
- relative viability (SW982; 1.111 µM): 0.286 ± 0.0054
- relative viability (SW982; 3.333 µM): 0.183 ± 0.0057
- relative viability (SW982; 10 µM): 0.219 ± 0.0079

SMILES: COc1cc(N2CCC(N3CCN(C)CC3)CC2)ccc1Nc1ncc(Cl)c(Nc2ccccc2P(C)(C)=O)n1 [Brigatinib]
- relative viability (KHOS-240S; 0.00017 µM): 1.04 ± 0.058
- relative viability (KHOS-240S; 0.00051 µM): 1.04 ± 0.045
- relative viability (KHOS-240S; 0.00152 µM): 1.02 ± 0.071
- relative viability (KHOS-240S; 0.00457 µM): 1.01 ± 0.07
- relative viability (KHOS-240S; 0.01372 µM): 0.989 ± 0.053
- relative viability (KHOS-240S; 0.04115 µM): 0.978 ± 0.079
- relative viability (KHOS-240S; 0.1235 µM): 0.92 ± 0.066
- relative viability (KHOS-240S; 0.3704 µM): 0.754 ± 0.035
- relative viability (KHOS-240S; 1.111 µM): 0.445 ± 0.02
- relative viability (KHOS-240S; 3.333 µM): 0.0468 ± 0.004
- relative viability (KHOS-240S; 10 µM): 0.0051 ± 0.0024
- relative viability (RD-ES; 0.00017 µM): 0.965 ± 0.041
- relative viability (RD-ES; 0.00051 µM): 0.968 ± 0.034
- relative viability (RD-ES; 0.00152 µM): 0.955 ± 0.03
- relative viability (RD-ES; 0.00457 µM): 0.918 ± 0.036
- relative viability (RD-ES; 0.01372 µM): 0.873 ± 0.029
- relative viability (RD-ES; 0.04115 µM): 0.839 ± 0.038
- relative viability (RD-ES; 0.1235 µM): 0.701 ± 0.018
- relative viability (RD-ES; 0.3704 µM): 0.457 ± 0.0099
- relative viability (RD-ES; 1.111 µM): 0.317 ± 0.0035
- relative viability (RD-ES; 3.333 µM): 0.165 ± 0.004
- relative viability (RD-ES; 10 µM): 0.0867 ± 0.0048
- relative viability (RD; 0.00017 µM): 1.06 ± 0.098
- relative viability (RD; 0.00051 µM): 1.06 ± 0.086
- relative viability (RD; 0.00152 µM): 1.07 ± 0.069
- relative viability (RD; 0.00457 µM): 1.05 ± 0.047
- relative viability (RD; 0.01372 µM): 1.05 ± 0.051
- relative viability (RD; 0.04115 µM): 0.978 ± 0.056
- relative viability (RD; 0.1235 µM): 0.769 ± 0.028
- relative viability (RD; 0.3704 µM): 0.459 ± 0.017
- relative viability (RD; 1.111 µM): 0.342 ± 0.012
- relative viability (RD; 3.333 µM): 0.168 ± 0.016
- relative viability (RD; 10 µM): 0.0473 ± 0.014
- relative viability (SK-ES-1; 0.00017 µM): 0.96 ± 0.048
- relative viability (SK-ES-1; 0.00051 µM): 0.986 ± 0.059
- relative viability (SK-ES-1; 0.00152 µM): 0.971 ± 0.033
- relative viability (SK-ES-1; 0.00457 µM): 0.973 ± 0.07
- relative viability (SK-ES-1; 0.01372 µM): 1 ± 0.038
- relative viability (SK-ES-1; 0.04115 µM): 0.951 ± 0.026
- relative viability (SK-ES-1; 0.1235 µM): 0.825 ± 0.021
- relative viability (SK-ES-1; 0.3704 µM): 0.496 ± 0.028
- relative viability (SK-ES-1; 1.111 µM): 0.251 ± 0.015
- relative viability (SK-ES-1; 3.333 µM): 0.0717 ± 0.0038
- relative viability (SK-ES-1; 10 µM): 0.0369 ± 0.0031
- relative viability (SW982; 0.00017 µM): 1.03 ± 0.015
- relative viability (SW982; 0.00051 µM): 1.03 ± 0.024
- relative viability (SW982; 0.00152 µM): 1.03 ± 0.011
- relative viability (SW982; 0.00457 µM): 1.01 ± 0.03
- relative viability (SW982; 0.01372 µM): 0.954 ± 0.012
- relative viability (SW982; 0.04115 µM): 0.869 ± 0.062
- relative viability (SW982; 0.1235 µM): 0.695 ± 0.026
- relative viability (SW982; 0.3704 µM): 0.383 ± 0.013
- relative viability (SW982; 1.111 µM): 0.122 ± 0.0045
- relative viability (SW982; 3.333 µM): 0.00817 ± 0.002
- relative viability (SW982; 10 µM): 0.00797 ± 0.0024
